Here are results for two compounds from patent US20150064794A1, “BIORELEVANT COMPOSITIONS” (PHARES PHARMACEUTICAL RESEARCH N.V., priority 2012, published 2015).

In brackets after ≈: the same amount, converted by molar mass.

The conditions of data set [1]: medium FaSSIF-Original; Söderlind; cited from earlier work.
The nature of data set [2]: physchem. Conditions: fassif.
The nature of data set [3]: Solubility in canine FaSSIF (FaSSIF-canine).

In general, solubility refers to the concentration that dissolves in the medium under given conditions.

As to `OCCN(CCO)c1nc(N2CCCCC2)c2nc(N(CCO)CCO)nc(N3CCCCC3)c2n1` [dipyridamole], the “solubility in prior art FaSSIF-Original” value in data set [1] is 19 µg/mL (≈ 37.7 µM). In addition, in data set [2], the concentration in solution (solubility) came to 75 µg/mL (≈ 149 µM).

`CC(=O)N1CCN(c2ccc(OCC3COC(Cn4ccnc4)(c4ccc(Cl)cc4Cl)O3)cc2)CC1` (stereo not shown) [ketoconazole]: the “solubility in prior art FaSSIF-Original” value in data set [1] was 26 µg/mL (≈ 48.9 µM). In addition, in data set [3], the solubility came to 84.2 µg/mL (≈ 158 µM).
